Results published in ChEMBL document CHEMBL3868595, “Plazomicin is effective in a non-human primate pneumonic plague model” (Bioorg Med Chem, 2016).
Calls of active or inactive are those of the source. No cut-off for these calls is given here.

Legend:
[1] = test system: Yersinia pestis; test: Antibacterial activity against Yersinia pestis Colorado 92 infected in African green monkey assessed as improvement in survival of monkey at 6.25 to 25 mg/kg, iv administered within 6 hrs post onset of sustained fever as 30 mins infusion for 10 days; type: functional, organism-based; conditions: CO92
[2] = test system: Yersinia pestis; test: Antibacterial activity against Yersinia pestis Colorado 92 infected in African green monkey B6672 model assessed as bacterial burden in kidney at 12.5 mg/kg, iv administered within 6 hrs post onset of sustained fever as 30 mins infusion for 5 days (reference value: 7.1 10^7CFU/g); type: functional, CO92
[3] = test system: Yersinia pestis; test: Antibacterial activity against Yersinia pestis Colorado 92 infected in African green monkey B6872 model assessed as bacterial burden in tracheobronchial lymph nodes at 25 mg/kg, iv administered within 6 hrs post onset of sustained fever as 30 mins infusion for 5 days (reference value: 7.7 10^9CFU/g); type: functional, organism-based; conditions: CO92, Lymph node
[4] = test system: Yersinia pestis; test: Antibacterial activity against Yersinia pestis Colorado 92 infected in African green monkey B6889 model assessed as bacterial burden in kidney at 6.25 mg/kg, iv administered within 6 hrs post onset of sustained fever as 30 mins infusion for 5 days (reference value: 7.1 10^7CFU/g); type: functional, CO92
[5] = test system: Yersinia pestis; test: Antibacterial activity against Yersinia pestis Colorado 92 infected in African green monkey B6469 model assessed as bacterial burden in liver at 25 mg/kg, iv administered within 6 hrs post onset of sustained fever as 30 mins infusion for 5 days (reference value: 5.2 10^8CFU/g); type: functional, organism-based; conditions: CO92
[6] = test system: Yersinia pestis; test: Antibacterial activity against Yersinia pestis Colorado 92 infected in African green monkey B6106 model assessed as bacterial burden in blood at 25 mg/kg, iv administered within 6 hrs post onset of sustained fever as 30 mins infusion for 5 days (reference value: 1.2 10^7CFU/ml); type: functional, CO92
[7] = test system: Yersinia pestis; test: Antibacterial activity against Yersinia pestis Colorado 92 infected in African green monkey B6783 model assessed as bacterial burden in brain at 12.5 mg/kg, iv administered within 6 hrs post onset of sustained fever as 30 mins infusion for 5 days (reference value: 1.9 10^6CFU/g); type: functional, CO92
[8] = test system: African green monkey; test: Toxicity in African green monkey 8067 model infected with Yersinia pestis Colorado 92 assessed as serum alanine aminotransferase level at 25 mg/kg, iv administered within 6 hrs post onset of sustained fever as 30 mins infusion for 10 days (reference value: 45 IU/L); type: organism-based; conditions: chlorocebus sabaeus, in vivo
[9] = test system: African green monkey; test: Toxicity in African green monkey B6140 model infected with Yersinia pestis Colorado 92 assessed as serum lactate dehydrogenase level at 25 mg/kg, iv administered within 6 hrs post onset of sustained fever as 30 mins infusion for 10 days (reference value: 290 IU/L); type: organism-based; conditions: chlorocebus sabaeus, in vivo
[10] = test system: African green monkey; test: Toxicity in African green monkey 7929 model infected with Yersinia pestis Colorado 92 assessed as serum lactate dehydrogenase level at 25 mg/kg, iv administered within 6 hrs post onset of sustained fever as 30 mins infusion for 10 days (reference value: 653 IU/L); type: organism-based; conditions: chlorocebus sabaeus, in vivo
[11] = test system: Yersinia pestis; test: Antibacterial activity against Yersinia pestis Colorado 92 infected in African green monkey C2083 model assessed as bacterial burden in kidney at 12.5 mg/kg, iv administered within 6 hrs post onset of sustained fever as 30 mins infusion for 5 days (reference value: 7.1 10^7CFU/g); type: functional, CO92
[12] = test system: African green monkey; test: Toxicity in African green monkey 7337 model infected with Yersinia pestis Colorado 92 assessed as serum gamma glutamyl-transferase level at 25 mg/kg, iv administered within 6 hrs post onset of sustained fever as 30 mins infusion for 10 days (reference value: 67 IU/L); type: organism-based; conditions: chlorocebus sabaeus, in vivo
[13] = test system: African green monkey; test: Toxicity in African green monkey assessed as effect on serum creatinine level at 35 mg/kg administered as iv infusion twice daily for 7 consecutive days measured on day 7 by LC-MS/MS analysis; type: organism-based; conditions: chlorocebus sabaeus, in vivo
[14] = test system: Yersinia pestis; test: Antibacterial activity against Yersinia pestis Colorado 92 infected in African green monkey 8047 model assessed as bacterial burden in spleen at 6.25 mg/kg, iv administered within 6 hrs post onset of sustained fever as 30 mins infusion for 10 days (reference value: 1.6 10^9CFU/g); type: functional, CO92
[15] = test system: African green monkey; test: Toxicity in African green monkey 7653 model infected with Yersinia pestis Colorado 92 assessed as serum alanine aminotransferase level at 25 mg/kg, iv administered within 6 hrs post onset of sustained fever as 30 mins infusion for 10 days (reference value: 50 IU/L); type: organism-based; conditions: chlorocebus sabaeus, in vivo
[16] = test system: Yersinia pestis; test: Antibacterial activity against Yersinia pestis Colorado 92 infected in African green monkey C2149 model assessed as bacterial burden in kidney at 6.25 mg/kg, iv administered within 6 hrs post onset of sustained fever as 30 mins infusion for 5 days (reference value: 7.1 10^7CFU/g); type: functional, CO92

`CN[C@@H]1[C@@H](O)[C@@H](O[C@@H]2[C@@H](O)[C@H](O[C@H]3OC(CNCCO)=CC[C@H]3N)[C@@H](N)C[C@H]2NC(=O)[C@@H](O)CCN)OC[C@]1(C)O` [PLAZOMICIN] was tested, and the Activity [1] was “Active”, the Activity [2] was 25 CFU/g and the Activity [3] was “Below limit of detection”. For the same compound, the Activity [4] was 1.1 ×10⁶ CFU/g, the Activity [5] was “Below limit of detection” and the Activity [6] was 40 CFU/ml. It also gave an Activity [7] of 33 CFU/g, an Activity [8] of 50 IU/L and an Activity [9] of 379 IU/L. The Activity [10] was 496 IU/L, the Activity [11] was 3.1 ×10⁶ CFU/g and the Activity [12] was 63 IU/L. The Activity [13] was 0.6 mg/dL, the Activity [14] was 19 CFU/g and the Activity [15] was 48 IU/L. It also gave an Activity [16] of 16 CFU/g.
